US20220170028A1, “NOVEL INTERLEUKIN-2 VARIANTS AND BIFUNCTIONAL FUSION MOLECULES THEREOF” (Cugene Inc, priority 2019, published 2022)
“Also recorded” adds a separate entry of the source.

Experiments:
Assay type in all cases: cell-based
[1] = tested on: CD4+ Treg vs CD4+ Tconv cells; assay: STAT5 phosphorylation, selectivity / activity profile Treg versus CD4+ Tconv cells, human PBMC
Source text: (§1) Single amino acid substitutions were introduced to IL-2 at positions corresponding to amino acids interacting with receptor subunit(s) β or γ or βγ. These substitutions were aimed to reduce IL-2 signaling capacity through the intermediate affinity IL-2Rβγ complex and confer signaling specificity from the high affinity IL-2Rαβγ. IL-2 variants containing single amino acid substitutions were examined for their ability to differentially stimulate STAT5 phosphorylation in CD4 positive Treg and Tconv cells. STAT5 is known to be involved in the downstream signaling cascade upon IL-2 binding to the transmembrane IL-2 receptors. The phosphorylation of STAT5 in defined lymphocyte subpopulations was measured using fresh human peripheral blood mononuclear cells (PBMC) and the forkhead transcription factor FOXP3 was used to identify the Treg population in FACS analysis.
(§2) Briefly, human PBMC were isolated by Ficoll-Hypaque centrifugation from the buffy coat of a healthy donor. PBMC were starved in serum-free MACS buffer at 4° C. for 1 hour. 2×10^5 PBMC were then treated with serial dilutions of test compounds for 30 min at 37° C. Cells were fixed and permeabilized with Foxp3/Transcription Factor Staining Buffer Set (EBIO) by incubating with 1× Foxp3 fixation/permeabilization working solution for 30 minutes and washing with 1× permeabilization buffer. Cells were additionally fixed with Cytofix buffer and permeabilized with Perm Buffer III (BD Biosciences) and then washed. After blocking Fc receptors by adding human TruStain FcX (1:50 dilution), cells were stained with a mixture of anti-CD25-PE, anti-FOXP3-APC, anti-pSTAT5-FITC, and anti-CD4-PerCP-Cy5.5 antibodies at concentrations recommended by the manufacturer for 45 minutes at room temperature. Cells were collected by centrifugation, washed, resuspended in FACS buffer, and analyzed by flow cytometry. The flow cytometry data was gated into CD4+/Foxp3+/CD25^high and CD4+/Foxp3−/CD25^low groups for the Treg and CD4 conventional T cell subsets, respectively. Data are expressed as a percent of pStat5 positive cells in gated population.
The S125I substitution was then introduced into wild-type IL-2 or IL-2 variants that already harbored 1 or 2 mutations targeting receptor subunit(s) β or γ or βγ. The resulting IL-2 variants containing isoleucine at position 125 were tested for their ability to stimulate STAT5 phosphorylation in Treg and Tconv cells in comparison with their respective serine counterparts at position 125. Table 7 lists the potency and selectivity of IL-2 variants in Treg cells. The two molecules in the same row of Table 7 share the same other amino acid substitution(s) and differ only at position 125 with either serine or isoleucine.

[2] = tested on: STAT5 phosphorylation in CD4+ Treg cells; assay: STAT5 phosphorylation in CD4+ Treg cells, human PBMC assay by FACS
Source text: as §1, §2

[3] = tested on: STAT5 phosphorylation in CD4+ Tconv cells; assay: STAT5 phosphorylation in CD4+ Tconv cells, human PBMC assay by FACS
Source text: as §1, §2

Row | Substance | activity profile / selectivity window Treg over CD4+ Tconv (in words) [1] | STAT5 phosphorylation activity in Treg cells (in words) [2] | STAT5 phosphorylation activity in CD4+ Tconv cells (in words) [3] | also measured
1 | P-0303: IL-2 Q126E Fc fusion, SEQ ID NO: 90 | modestly improved selective window | minimally impacted the pSTAT5 activation potency | – | –
2 | P-0322: IL-2 D20T/Q126E Fc fusion, SEQ ID NO: 99 | – | pronounced reduced potency | – | –
3 | P-0365: IL-2 D20N Fc fusion, SEQ ID NO: 76 | – | ability to induce STAT5 phosphorylation | largely diminished or abolished | –
4 | P-0366: IL-2 D20Q Fc fusion, SEQ ID NO: 77 | – | ability to induce STAT5 phosphorylation | largely diminished or abolished | –
5 | P-0367: IL-2 D20S Fc fusion, SEQ ID NO: 78 | – | ability to induce STAT5 phosphorylation | largely diminished or abolished | –
6 | P-0368: IL-2 D20Y Fc fusion, SEQ ID NO: 79 | – | no biological activity | no biological activity | –
7 | P-0373: IL-2 L19N Fc fusion, SEQ ID NO: 82 | wide window for selective targeting of Treg subset; also recorded: some or significant biased selective window | – | reduced | –
8 | P-0374: IL-2 L19R Fc fusion, SEQ ID NO: 83 | – | – | largely retained the biological activity | –
9 | P-0417: IL-2 L19N/Q126E Fc fusion, SEQ ID NO: 103 | – | pronounced reduced potency | – | –
10 | P-0423: IL-2 L19Q Fc fusion, SEQ ID NO: 152 | – | – | largely retained the biological activity | –
11 | P-0427: IL-2 L19S Fc fusion, SEQ ID NO: 156 | – | – | largely retained the biological activity | –
12 | P-0448: IL-2 L19Q/Q126E Fc fusion, SEQ ID NO: 174 | on par with Benchmark-2 | significant potency | largely abolished | –
13 | P-0449: IL-2 L19S/Q126E Fc fusion, SEQ ID NO: 175 | on par with Benchmark-2 | significant potency | largely abolished | –
14 | P-0464: IL-2 L19Y/Q126K Fc fusion, SEQ ID NO: 176 | – | retained comparable potency | varied significantly | –
15 | P-0474: IL-2 L19Y/Q22K Fc fusion, SEQ ID NO: 186 | – | retained comparable potency | varied significantly | –
16 | P-0480: IL-2 L19H/Q126K Fc fusion, SEQ ID NO: 189 | – | – | – | Treg Selectivity ([1]; Serine-125 constructs): Yes

Row | Substance | activity profile / selectivity window Treg over CD4+ Tconv (in words) [1] | STAT5 phosphorylation activity in Treg cells (in words) [2] | STAT5 phosphorylation activity in CD4+ Tconv cells (in words) [3] | also measured
17 | P-0536: Tocilizumab IL-2 L19H/S125I/Q126E bivalent fusion, SEQ ID NOs 253 + 255 | – | slightly higher activity than its monomeric equivalent P-0546 | – | –
18 | P-0559: Tocilizumab IL-2 D20Q/S125I bivalent fusion, SEQ ID NOs 253 + 265 | selective activation of Treg cells over CD4+ Tconv cells | reduced potency | essentially abolished | –
19 | P-0588: Tocilizumab IL-2 D20S/S125I bivalent fusion, SEQ ID NOs 253 + 257 | – | reduced potency | – | –
20 | P-0589: Tocilizumab IL-2 D20N/S125I bivalent fusion, SEQ ID NOs 253 + 258 | – | reduced potency | – | –
21 | P-0590: Tocilizumab IL-2 L19N/S125I/Q126E bivalent fusion, SEQ ID NOs 253 + 267 | – | reduced potency | – | maximum possible effect / signaling amplitude of STAT5 phosphorylation in Treg cells [2]: lower signaling amplitude
22 | P-0694: Tocilizumab IL-2 L19H/S125I/Q126D bivalent fusion, SEQ ID NOs 253 + 308 | wide selectivity window | reduced potency | essentially abolished | –
23 | P-0695: Tocilizumab IL-2 L19H/S125I/Q126H bivalent fusion, SEQ ID NOs 253 + 309 | did not impair the protein activity nor improve the Treg selectivity | – | – | –
24 | P-0697: Tocilizumab IL-2 L19H/S125I/Q126N bivalent fusion, SEQ ID NOs 253 + 310 | did not impair the protein activity nor improve the Treg selectivity | – | – | –
25 | P-0698: Tocilizumab IL-2 L19H/S125I/Q126R bivalent fusion, SEQ ID NOs 253 + 311 | did not impair the protein activity nor improve the Treg selectivity | – | – | –
26 | P-0699: Tocilizumab IL-2 L19H/S125I/Q126S bivalent fusion, SEQ ID NOs 253 + 312 | did not impair the protein activity nor improve the Treg selectivity | – | – | –
27 | P-0700: Tocilizumab IL-2 L19H/S125I/Q126T bivalent fusion, SEQ ID NOs 253 + 307 | did not impair the protein activity nor improve the Treg selectivity | – | – | –
28 | P-0859: IL-2 L19N/S125I/Q126E Fc fusion, SEQ ID NO: 306 | – | different levels of potency attenuation | – | maximum possible effect / signaling amplitude of STAT5 phosphorylation in Treg cells [2]: moderately reduced
29 | P-0860: IL-2 L19D/S125I/Q126E Fc fusion, SEQ ID NO: 300 | – | different levels of potency attenuation | – | maximum possible effect / signaling amplitude of STAT5 phosphorylation in Treg cells [2]: strikingly lower
30 | P-0862: Fc fusion, 5 amino acid N-terminal deletion of P-0511 IL-2 variant (Table 4H prints L19D), SEQ ID NO: 302 | – | fully retained potency | – | –
31 | P-0863: Fc fusion, 7 amino acid N-terminal deletion of P-0511 IL-2 variant (Table 4H prints L19D), SEQ ID NO: 303 | – | fully retained potency | – | –
